From ChEMBL document CHEMBL1201862, “PubChem BioAssay data set” (2004) come the findings set out here.

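Each compound was tested at five concentrations against cells in 96-well plates for 48 hours. The concentration for 50% growth inhibition is given as GI50.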 Calls of active or inactive are those of the source. No stated cut-off is given here; in the data, active = GI50 up to about 1.1 µM and inactive = higher. Where only a bound is given, the exact number is not on record here.

Among the test systems are A549; SF-295; K562; SK-MEL-28; OVCAR-8; OVCAR-5; HCT-15; UACC-257; SK-MEL-2; SNB-75; SNB-19; HOP-92; M14; HCC 2998; NCI-H23; 786-0; A498.
Experiment in all cases: DTP human tumour cell line panel, 48 h

By GI50 is commonly meant the concentration at which growth is held to half of that of the control. In the case of `COc1ccc2c([nH]c3c(O)c(-c4c(C)cc5c([nH]c6c(CC=C(C)C)c(OC)ccc65)c4O)c(C)cc32)c1CC=C(C)C` [BISMURRAYAFOLINE B], the GI50 with A549, in the assay on SF-295, in the assay with K562, in the assay with SK-MEL-28, in the assay with OVCAR-8 and in the assay on OVCAR-5 was > 100 µM (inactive) throughout. Besides, the GI50 is over 100 µM in the assay on HCT-15; > 100 µM (inactive) in the assay with UACC-257; > 100 µM (inactive) in the assay on SK-MEL-2; > 100 µM (inactive) in the assay with SNB-75; > 100 µM (inactive) with SNB-19; > 100 µM (inactive) with HOP-92. In addition, the GI50 with M14, in the assay with HCC 2998, in the assay on NCI-H23, with 786-0 and with A498 was > 100 µM (inactive) throughout.

Regarding `N#Cc1cccc(/C=N/C23CC4CC(CC(C4)C2)C3)c1`, the GI50 in the assay on A549 was > 100 µM (inactive); with SF-295, > 100 µM (inactive); with K562 it was 38.4 µM (inactive); in the assay with SK-MEL-28, > 100 µM (inactive); in the assay with OVCAR-8, > 100 µM (inactive); in the assay on OVCAR-5 it was > 100 µM (inactive). Moreover, the GI50 in the assay on HCT-15 is over 100 µM; with UACC-257, > 100 µM (inactive); with SK-MEL-2, > 100 µM (inactive); in the assay on SNB-75 it was > 10 µM (inactive); in the assay on SNB-19 it was > 100 µM (inactive); in the assay on HOP-92, > 100 µM (inactive). The GI50 in the assay on M14, in the assay with HCC 2998, in the assay with NCI-H23, in the assay with 786-0 and in the assay with A498 was > 100 µM (inactive) throughout.

With `O=C1C2Cc3ccccc3CN2C(=O)N1CN1CCN(CN2C(=O)C3Cc4ccccc4CN3C2=O)CC1` (stereo not drawn), the GI50 in the assay with A549, in the assay with SF-295, in the assay with K562, in the assay with SK-MEL-28, in the assay on OVCAR-8 and in the assay with OVCAR-5 was > 100 µM (inactive) each time. In addition, the GI50 in the assay on HCT-15 was over 100 µM; with UACC-257 it was > 100 µM (inactive); with SK-MEL-2, > 100 µM (inactive); in the assay with SNB-75, > 100 µM (inactive); in the assay with SNB-19, > 100 µM (inactive); in the assay with HOP-92, > 100 µM (inactive). Also, the GI50 in the assay with HCC 2998, in the assay with NCI-H23, in the assay with 786-0 and in the assay on A498 was > 100 µM (inactive) in each case.

`Cc1ccc(NS(=O)(=O)c2cc(C(C)(C)C)ccc2OCCOCCOCCOc2ccc(C(C)(C)C)cc2S(=O)(=O)Nc2ccc(C)cc2)cc1`: the GI50 in the assay on A549, in the assay with SF-295, with K562, with SK-MEL-28, with OVCAR-8 and in the assay with OVCAR-5 was > 100 µM (inactive) throughout. For the same molecule, the GI50 with HCT-15 was over 100 µM; in the assay with UACC-257, > 100 µM (inactive); in the assay with SK-MEL-2, > 100 µM (inactive); in the assay with SNB-75, > 100 µM (inactive); in the assay on SNB-19, > 100 µM (inactive); in the assay on HOP-92 it was > 100 µM (inactive). Also, the GI50 in the assay with M14, with HCC 2998, in the assay on NCI-H23, in the assay with 786-0 and with A498 was > 100 µM (inactive) each time.

Turning to `C1CCN(C2OC3C(COC3N3CCCCC3)OC2OC2CCO[C@@H]2N2CCCCC2)CC1` (stereo partly drawn), the GI50 in the assay on A549 is 51.3 µM (inactive); with SF-295, 47.5 µM (inactive); in the assay on K562, 28.4 µM (inactive); in the assay on SK-MEL-28 it was 57.9 µM (inactive); with OVCAR-8 it was 17.5 µM (inactive); with OVCAR-5 it was > 100 µM (inactive). The concentration for 50% growth inhibition (GI50) with HCT-15 was 29.5 µM; with UACC-257 it was 20.8 µM (inactive); with SK-MEL-2, 20.8 µM (inactive); with SNB-75 it was 9.98 µM (inactive); in the assay on SNB-19, 36.2 µM (inactive); in the assay with HOP-92 it was 11 µM (inactive). Besides, the GI50 is 40.6 µM (inactive) in the assay on M14; > 100 µM (inactive) in the assay with HCC 2998; 21.1 µM (inactive) in the assay on NCI-H23; 34.7 µM (inactive) in the assay with 786-0; 34.1 µM (inactive) in the assay on A498.

`COC1=CC23C=CC1[C@@H](c1ccccc1)C2=C(C)C(=O)N3C(=O)NC1CCCCC1` (stereo partly drawn): the GI50 in the assay with A549 is 24.7 µM (inactive); in the assay on SF-295, 22.4 µM (inactive); with K562 it was 28.2 µM (inactive); in the assay on SK-MEL-28, 18.5 µM (inactive); in the assay on OVCAR-8, 25.3 µM (inactive); with OVCAR-5, 23.7 µM (inactive). Moreover, the GI50 with HCT-15 was 5.11 µM; in the assay on UACC-257, 26.6 µM (inactive); in the assay with SK-MEL-2 it was 17.5 µM (inactive); in the assay with SNB-75, 3.78 µM (inactive); in the assay with SNB-19, 31.8 µM (inactive); in the assay on HOP-92, 19 µM (inactive). The GI50 was 19 µM (inactive) in the assay on M14; 21.6 µM (inactive) with HCC 2998; 18.5 µM (inactive) in the assay on NCI-H23; 15.5 µM (inactive) in the assay on 786-0; 25.6 µM (inactive) in the assay on A498.

Regarding `O=C1C=C(Nc2ccccc2C(=O)CC(=O)C(=O)Nc2ccc(Cl)c(Cl)c2)c2ccccc2C1=O`, the GI50 with A549 was 53.1 µM (inactive); in the assay with SF-295, 59 µM (inactive); in the assay on K562, 12.2 µM (inactive); in the assay on SK-MEL-28, 10.6 µM (inactive); in the assay with OVCAR-8, 26.7 µM (inactive); with OVCAR-5, > 100 µM (inactive). Also, the GI50 with HCT-15 was 20.4 µM; in the assay with UACC-257, 20.9 µM (inactive); with SK-MEL-2, 30.6 µM (inactive); in the assay with SNB-19, 37.5 µM (inactive); with HOP-92, 75.9 µM (inactive); in the assay with M14 it was 32.1 µM (inactive). Further, the GI50 was > 100 µM (inactive) in the assay on HCC 2998, 21.1 µM (inactive) with NCI-H23, 35.3 µM (inactive) with 786-0 and > 100 µM (inactive) in the assay on A498.

Regarding `COC(=O)C1=C(c2ccc(OC)c(OC)c2)OC(c2cc(OC)c(OC)c(OC)c2)C1` (stereo not drawn), the GI50 in the assay with A549 is > 100 µM (inactive); in the assay on SF-295, 23 µM (inactive); in the assay on K562 it was > 100 µM (inactive); in the assay with SK-MEL-28, > 100 µM (inactive); in the assay on OVCAR-8, 25.9 µM (inactive); in the assay on OVCAR-5, > 100 µM (inactive). In addition, the GI50 is > 100 µM (inactive) in the assay with UACC-257; 20.1 µM (inactive) in the assay on SK-MEL-2; 7.31 µM (inactive) in the assay on SNB-75; 23.2 µM (inactive) with HOP-92; 65.6 µM (inactive) in the assay on M14; > 100 µM (inactive) in the assay with HCC 2998. The GI50 in the assay on NCI-H23 was 99.3 µM (inactive); with 786-0, 20 µM (inactive); in the assay with A498, 25.6 µM (inactive).

Regarding `CC1=C(C(=O)Nc2ccc([N+](=O)[O-])cc2)C(c2cccc([N+](=O)[O-])c2)C(C(=O)Nc2ccc([N+](=O)[O-])cc2)=C(C)N1`, the GI50 is 29.7 µM (inactive) with A549; 30.1 µM (inactive) with SF-295; 9.93 µM (inactive) in the assay with K562; 30.7 µM (inactive) with SK-MEL-28; 17.8 µM (inactive) with OVCAR-8; > 100 µM (inactive) in the assay with OVCAR-5. Moreover, the GI50 was 61.7 µM in the assay with HCT-15; 16 µM (inactive) in the assay with UACC-257; 33.1 µM (inactive) in the assay with SK-MEL-2; 23.7 µM (inactive) in the assay on SNB-75; 52.7 µM (inactive) in the assay with SNB-19; 5.31 µM (inactive) in the assay on HOP-92. In addition, the GI50 in the assay with M14 was 24.3 µM (inactive); with HCC 2998, 25.6 µM (inactive); with NCI-H23 it was 13.3 µM (inactive); with 786-0, 48.2 µM (inactive); in the assay on A498 it was 32.8 µM (inactive).

Take `CC1CC(c2ccc([N+](=O)[O-])cc2)=Nc2ccccc2S1` (stereo not drawn): the GI50 with A549 was 21.9 µM (inactive); with SF-295, 19.1 µM (inactive); with K562, 6.04 µM (inactive); in the assay with SK-MEL-28 it was 17.9 µM (inactive); in the assay on OVCAR-8, 25.9 µM (inactive); in the assay with OVCAR-5, 23.9 µM (inactive). Also, the GI50 with HCT-15 was 15.4 µM; in the assay on UACC-257 it was 18.7 µM (inactive); with SNB-75, 37.6 µM (inactive); in the assay on SNB-19, 16.7 µM (inactive); in the assay on HOP-92, 29 µM (inactive); in the assay on M14, 14.2 µM (inactive). Further, the GI50 in the assay with HCC 2998 was 19.1 µM (inactive); in the assay on NCI-H23 it was 15.8 µM (inactive); in the assay on 786-0 it was 15.3 µM (inactive); in the assay with A498, 19 µM (inactive).

Take `Nc1ncnc2c1ncn2CC(O)CO` (stereo not drawn): the GI50 with A549 was > 100 µM (inactive); with SF-295 it was > 100 µM (inactive); with K562, > 100 µM (inactive); in the assay on SK-MEL-28, > 100 µM (inactive); in the assay with OVCAR-8 it was > 100 µM (inactive); with HCT-15, over 100 µM. Further, the GI50 with UACC-257, with SK-MEL-2, with SNB-75, in the assay with SNB-19, in the assay on HOP-92 and with M14 was > 100 µM (inactive) each time. For the same molecule, the GI50 in the assay on HCC 2998 is 86.7 µM (inactive); in the assay with NCI-H23, > 100 µM (inactive); with 786-0 it was > 100 µM (inactive); in the assay with A498, > 100 µM (inactive).

As to `COC12CC(O)=C(C(C)=O)C(=O)C1(C)c1c(OC(C)=O)c(C)c(O)c(C(C)=O)c1O2` (stereo not drawn), the GI50 is 9.44 µM (inactive) in the assay on A549; 8.09 µM (inactive) in the assay on SF-295; 16.9 µM (inactive) in the assay with K562; 16 µM (inactive) with SK-MEL-28; 10.8 µM (inactive) in the assay on OVCAR-8; 31.9 µM (inactive) in the assay with OVCAR-5. Further, the concentration for 50% growth inhibition (GI50) is 13.6 µM in the assay on HCT-15; 23.6 µM (inactive) with UACC-257; 19 µM (inactive) in the assay with SK-MEL-2; 16 µM (inactive) in the assay on SNB-75; 4.98 µM (inactive) with SNB-19; 18.4 µM (inactive) in the assay with HOP-92. The GI50 in the assay with M14 was 22.5 µM (inactive); with HCC 2998 it was 18.3 µM (inactive); in the assay on NCI-H23 it was 4.86 µM (inactive); in the assay with 786-0, 18.9 µM (inactive); with A498, 17.3 µM (inactive).
